{
  "source": "paper PMC3703859",
  "about": "(Neuropharmacology, 2010)",
  "molecules": {"B1": {"name": "wild type human DAT (Homo sapiens) (protein)", "chain": "MSKSKCSVGLMSSVVAPAKEPNAVGPKEVELILVKEQNGVQLTSSTLTNPRQSPVEAQDRETWGKKIDFLLSVIGFAVDLANVWRFPYLCYKNGGGAFLVPYLLFMVIAGMPLFYMELALGQFNREGAAGVWKICPILKGVGFTVILISLYVGFFYNVIIAWALHYLFSSFTTELPWIHCNNSWNSPNCSDAHPGDSSGDSSGLNDTFGTTPAAEYFERGVLHLHQSHGIDDLGPPRWQLTACLVLVIVLLYFSLWKGVKTSGKVVWITATMPYVVLTALLLRGVTLPGAIDGIRAYLSVDFYRLCEASVWIDAATQVCFSLGVGFGVLIAFSSYNKFTNNCYRDAIVTTSINSLTSFSSGFVVFSFLGYMAQKHSVPIGDVAKDGPGLIFIIYPEAIATLPLSSAWAVVFFIMLLTLGIDSAMGGMESVITGLIDEFQLLHRHRELFTLFIVLATFLLSLFCVTNGGIYVFTLLDHFAAGTSILFGVLIEAIGVAWFYGVGQFSDDIQQMTGQRPSLYWRLCWKLVSPCFLLFVVVVSIVTFRPPHYGAYIFPDWANALGWVIATSSMAMVPIYAAYKFCSLPGSFREKLAYAIAPEKDRELVDRGEVRQFTLRHWLKV"}, "B2": {"name": "human DAT S422A (Homo sapiens; S422A) (protein)", "chain": "B1 chain with S422A"}, "B3": {"name": "human DAT V152A (Homo sapiens; V152A) (protein)", "chain": "B1 chain with V152A"}, "B4": {"name": "human DAT N157A (Homo sapiens; N157A) (protein)", "chain": "B1 chain with N157A"}, "B5": {"name": "human DAT A479V/A480V (Homo sapiens; A479V/A480V) (protein)", "chain": "B1 chain with A479V, A480V"}, "B6": {"name": "human DAT N157C (Homo sapiens; N157C) (protein)", "chain": "B1 chain with N157C"}, "B7": {"name": "human DAT V152I (Homo sapiens; V152I) (protein)", "chain": "B1 chain with V152I"}},
  "key": {"human DAT V152A [1]": {"biological_target": "T1, human DAT V152A (Homo sapiens, UniProt Q01959, V152A)", "T1 sequence (Q01959 whole entry V152A)": "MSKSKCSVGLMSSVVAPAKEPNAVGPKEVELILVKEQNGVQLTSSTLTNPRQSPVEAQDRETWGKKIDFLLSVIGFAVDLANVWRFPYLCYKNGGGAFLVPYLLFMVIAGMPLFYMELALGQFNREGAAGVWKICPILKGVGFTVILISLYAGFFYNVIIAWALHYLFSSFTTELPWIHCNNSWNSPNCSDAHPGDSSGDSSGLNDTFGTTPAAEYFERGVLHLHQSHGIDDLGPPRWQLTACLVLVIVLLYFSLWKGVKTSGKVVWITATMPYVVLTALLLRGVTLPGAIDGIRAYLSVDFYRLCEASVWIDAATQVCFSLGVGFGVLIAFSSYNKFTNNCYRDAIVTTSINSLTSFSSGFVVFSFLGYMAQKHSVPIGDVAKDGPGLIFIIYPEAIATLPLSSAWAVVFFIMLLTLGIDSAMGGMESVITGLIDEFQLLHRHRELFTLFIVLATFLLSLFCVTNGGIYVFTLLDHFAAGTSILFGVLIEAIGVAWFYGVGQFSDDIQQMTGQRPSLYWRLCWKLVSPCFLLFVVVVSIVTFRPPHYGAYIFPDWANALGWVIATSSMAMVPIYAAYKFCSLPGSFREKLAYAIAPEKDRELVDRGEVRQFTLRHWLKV", "experiment": "[^3H]CFT binding on intact transfected COS7 cells", "details": "for reduction in apparent affinity in [^3H]CFT competition binding versus wild type: V152A vs WT"}, "human DAT V152I [2]": {"biological_target": "T2, human DAT V152I (Homo sapiens, UniProt Q01959, V152I)", "T2 sequence (Q01959 whole entry V152I)": "as the sequence (Q01959 whole entry V152A) above, with A152I counted along it", "experiment": "[^3H]CFT binding on intact transfected COS7 cells", "details": "for reduction in apparent affinity in [^3H]CFT competition binding versus wild type: V152I vs WT"}, "human DAT V152I [3]": {"biological_target": "T2, human DAT V152I", "experiment": "[^3H]dopamine uptake in transfected COS7 cells", "format": "cell-based", "details": "for decrease in potency in inhibition of [^3H]dopamine uptake versus wild type: V152I vs WT"}, "human DAT V152A [4]": {"biological_target": "T1, human DAT V152A", "experiment": "[^3H]dopamine uptake in transfected COS7 cells", "format": "cell-based", "details": "for decrease in potency in inhibition of [^3H]dopamine uptake versus wild type: V152A vs WT"}, "human DAT A479V/A480V [5]": {"biological_target": "T3, human DAT A479V/A480V (Homo sapiens, UniProt Q01959, A479V/A480V)", "T3 sequence (Q01959 whole entry A479V/A480V)": "as the sequence (Q01959 whole entry V152A) above, with A152V, A479V, A480V counted along it", "experiment": "[^3H]CFT binding on intact transfected COS7 cells"}, "wild type human DAT [6]": {"biological_target": "T4, wild type human DAT (Homo sapiens, UniProt Q01959)", "experiment": "[^3H]CFT binding on intact transfected COS7 cells", "details": "WT DAT"}, "human DAT N157A": {"biological_target": "human DAT N157A (Homo sapiens, UniProt Q01959, N157A)", "sequence (Q01959 whole entry N157A)": "as the sequence (Q01959 whole entry V152A) above, with A152V, N157A counted along it", "experiment": "[^3H]dopamine uptake in transfected COS7 cells", "format": "cell-based"}, "human DAT A479V/A480V [7]": {"biological_target": "T3, human DAT A479V/A480V", "experiment": "[^3H]dopamine uptake in transfected COS7 cells", "format": "cell-based"}, "human DAT S422A": {"biological_target": "human DAT S422A (Homo sapiens, UniProt Q01959, S422A)", "sequence (Q01959 whole entry S422A)": "as the sequence (Q01959 whole entry V152A) above, with A152V, S422A counted along it", "experiment": "[^3H]dopamine uptake in transfected COS7 cells", "format": "cell-based"}, "human DAT N157C": {"biological_target": "human DAT N157C (Homo sapiens, UniProt Q01959, N157C)", "sequence (Q01959 whole entry N157C)": "as the sequence (Q01959 whole entry V152A) above, with A152V, N157C counted along it", "experiment": "[^3H]dopamine uptake in transfected COS7 cells", "format": "cell-based"}, "wild type human DAT [8]": {"biological_target": "T4, wild type human DAT", "experiment": "[^3H]dopamine uptake in transfected COS7 cells", "format": "cell-based", "details": "WT DAT"}, "[9]": {"substrate": "NCCc1ccc(O)c(O)c1", "experiment": "cells, lysate or membranes", "details": "COS7 cells, 5 min uptake at room temperature, pH 7.4"}},
  "note": "Residue numbers refer to the chain shown, from its start. In names and notes the source's numbering stands.",
  "data": [
    {"molecule": "CN1[C@@H]2CC[C@H]1C[C@@H](OC(c1ccccc1)c1ccccc1)C2", "note": "[BZT, benztropine]", "values": [
      {"measurement": "reduction in apparent affinity in [^3H]CFT competition binding versus wild type", "setting": "human DAT V152A [1]", "value": "~ 15 fold"},
      {"measurement": "reduction in apparent affinity in [^3H]CFT competition binding versus wild type", "setting": "human DAT V152I [2]", "value": "~ 15 fold"},
      {"measurement": "decrease in potency in inhibition of [^3H]dopamine uptake versus wild type", "setting": "human DAT V152I [3]", "value": "no change"},
      {"measurement": "decrease in potency in inhibition of [^3H]dopamine uptake versus wild type", "setting": "human DAT V152A [4]", "value": "~ 3 fold"}
    ]},
    {"molecule": "COC(=O)[C@H]1[C@@H](c2ccc(F)cc2)C[C@@H]2CC[C@H]1N2C", "note": "[CFT, (−)-2β-carbomethoxy-3β-(4-fluorophenyl)tropane]", "values": [
      {"measurement": "Bmax ± S.E. of [^3H]CFT binding", "setting": "human DAT V152A [1]; V152A, intact COS7 cells", "value": "380 ± 99", "unit": "fmol/10^5 cells"},
      {"measurement": "Bmax ± S.E. of [^3H]CFT binding", "setting": "human DAT A479V/A480V [5]", "value": "310 ± 44", "unit": "fmol/10^5 cells"},
      {"measurement": "Bmax ± S.E. of [^3H]CFT binding", "setting": "human DAT V152I [2]; V152I, intact COS7 cells", "value": "215 ± 58", "unit": "fmol/10^5 cells"},
      {"measurement": "Bmax ± S.E. of [^3H]CFT binding", "setting": "wild type human DAT [6]", "value": "386 ± 89", "unit": "fmol/10^5 cells"}
    ]},
    {"molecule": "CCCCN1[C@@H]2CC[C@H]1CC(OC(c1ccc(F)cc1)c1ccc(F)cc1)C2", "note": "(stereo partly drawn) [JHW007]", "values": [
      {"measurement": "reduction in apparent affinity in [^3H]CFT competition binding versus wild type", "setting": "human DAT V152A [1]", "value": "10–20 fold"},
      {"measurement": "reduction in apparent affinity in [^3H]CFT competition binding versus wild type", "setting": "human DAT V152I [2]", "value": "10–20 fold"},
      {"measurement": "decrease in potency in inhibition of [^3H]dopamine uptake versus wild type", "setting": "human DAT V152I [3]", "value": "~ 6 fold"},
      {"measurement": "decrease in potency in inhibition of [^3H]dopamine uptake versus wild type", "setting": "human DAT V152A [4]", "value": "~ 2 fold"}
    ]},
    {"molecule": "NCCc1ccc(O)c(O)c1", "note": "[[^3H]Dopamine, 3,4-[Ring-2,5,6-^3H]-dihydroxyphenylethylamine]", "values": [
      {"measurement": "Vmax ± S.E. of [^3H]dopamine uptake", "setting": "human DAT N157A", "value": "598 ± 179", "unit": "fmol/min/10^5 cells"},
      {"measurement": "Vmax ± S.E. of [^3H]dopamine uptake", "setting": "human DAT A479V/A480V [7]", "value": "2231 ± 157", "unit": "fmol/min/10^5 cells"},
      {"measurement": "Vmax ± S.E. of [^3H]dopamine uptake", "setting": "human DAT V152I [3]; V152I, COS7 cells", "value": "242 ± 37", "unit": "fmol/min/10^5 cells"},
      {"measurement": "increase in Km value for [^3H]dopamine uptake versus wild type", "setting": "human DAT S422A; S422A vs WT", "value": "~ 4 fold"},
      {"measurement": "Vmax ± S.E. of [^3H]dopamine uptake", "setting": "human DAT S422A; S422A, COS7 cells", "value": "320 ± 40", "unit": "fmol/min/10^5 cells"},
      {"measurement": "Vmax ± S.E. of [^3H]dopamine uptake", "setting": "human DAT N157C", "value": "1768 ± 159", "unit": "fmol/min/10^5 cells"},
      {"measurement": "Vmax ± S.E. of [^3H]dopamine uptake", "setting": "wild type human DAT [8]", "value": "5275 ± 555", "unit": "fmol/min/10^5 cells"},
      {"measurement": "Vmax ± S.E. of [^3H]dopamine uptake", "setting": "human DAT V152A [4]; V152A, COS7 cells", "value": "614 ± 167", "unit": "fmol/min/10^5 cells"}
    ]},
    {"molecule": "B1", "values": [
      {"measurement": "Km", "setting": "[9]; other: WT DAT", "value": "986 [861–1130] nM"}
    ]},
    {"molecule": "B2", "values": [
      {"measurement": "Km", "setting": "[9]; other: S422A", "value": "3950 [3730–4190] nM"}
    ]},
    {"molecule": "B3", "values": [
      {"measurement": "Km", "setting": "[9]; other: V152A", "value": "3090 [2310–4130] nM"}
    ]},
    {"molecule": "B4", "values": [
      {"measurement": "Km", "setting": "[9]; other: N157A", "value": "3240 [2720–3870] nM"}
    ]},
    {"molecule": "B5", "values": [
      {"measurement": "Km", "setting": "[9]; other: A479V/A480V", "value": "1620 [1350–1940] nM"}
    ]},
    {"molecule": "B6", "values": [
      {"measurement": "Km", "setting": "[9]; other: N157C", "value": "2710 [2170–3380] nM"}
    ]},
    {"molecule": "B7", "values": [
      {"measurement": "Km", "setting": "[9]; other: V152I", "value": "4370 [3180–6010] nM"}
    ]}
  ]
}
